Our source for the RP-LC retention time values is the METLIN SMRT retention time set (Domingo-Almenara et al. 2019).

This series is described as follows: gradient 5% acetonitrile 3 min, to 50% in 2 min, to 85% in 15 min, held 3 min, 100 µL/min. Particulars: column: Zorbax Extend-C18 2.1 x 50 mm; eluents: water / acetonitrile, 0.1% formic acid. The method in brief: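 Values are retention times taken from adduct peaks that software picked and an analyst inspected. The pure standards were run as mixtures of ~100 molecules on HPLC linked to a quadrupole time-of-flight mass spectrometer, in positive and negative ionization mode. A Zorbax Extend-C18 column (2.1 × 50 mm, 1.8 μm) was used at 100 μL/min with water and acetonitrile, each including 0.1% formic acid.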
Compound `CC1=C(c2cccc(Cl)c2)S(=O)(=O)N=C1N1CCC(NC(=O)C2CCC2)CC1` came in with an RP-LC retention time of 840 s.
Under `Cc1ccc(NC(=O)Cn2nc3cc(C)nc(-c4ccccc4)n3c2=O)c(C)c1` stands 832 s.
The compound `CCc1ccc(-c2cn3cc(C(=O)NCCN4CCN(CC)CC4)ccc3n2)cc1` showed an RP-LC retention time of 576 s.
Under `O=C(NC1CCCCC1N1C(=O)CSC1=O)c1ccc(=O)[nH]c1` (stereo unspecified) stands 583 s.
Under `O=C(c1ccc(Cl)cc1)N1CCCCC(Sc2ncnc3sccc23)C1=O` (stereo unspecified) stands 1050 s; under `CCOc1ccc(CCNc2nc(-c3ccc(OC)cc3)no2)cc1OCC`, 1020 s.
Under `CN1CCN(c2ccc(-c3ccc(NC(=O)Nc4cccc(Cl)c4)cc3)nn2)CC1` stands 588 s; under `CCCN1CCN(C(=O)C2CCN(S(=O)(=O)c3cc(-c4noc(CC)n4)sc3C)CC2)CC1`, 666 s.
Regarding `COc1ccc(OC)c(NC(=O)C2=Cc3cc(Br)ccc3OC2)c1`, the RP-LC retention time is 1150 s.
On to `Cc1ccc(NC(=O)N2CCC(c3nc(C(=O)N(C)C)c(C)o3)CC2)cc1C`, for which the RP-LC retention time was found to be 726 s.
Under `CCOC(=O)c1nc(Nc2ccc(S(=O)(=O)Nc3ncccn3)cc2)c2ccccc2n1` stands 688 s; under `COc1ccc(CNC(=O)c2cc3c(=O)n(C)ccc3n2C)cc1`, 664 s.
Under `CCN1C(=O)C(C)(C(=O)NCc2cccc(OC)c2)Oc2cccnc21` (stereo unspecified) stands 829 s; under `Cc1nc2ccc(Cl)cn2c1[N+](=O)[O-]`, 820 s.
Under `Cc1nc2cc(N3CC(C(=O)NCc4ccc(Cl)cc4)CC3=O)ccc2o1` (stereo unspecified) stands 743 s; under `COc1ccccc1CNC(=O)C1CCN(S(C)(=O)=O)c2cc(Cl)ccc2O1` (stereo unspecified), 910 s; under `CCN1CCN(c2nccc(-c3cnc4nc(-c5ccc(Cl)cc5)nn4c3C)n2)CC1`, 1010 s.
In turn, `O=C1CN(Cc2ccc(F)cc2Cl)CC2(CCCCC2)N1CC1CC1` came in with an RP-LC retention time of 1330 s.
Turning to `CN1c2cc(Cl)ccc2C(=O)NC12CCN(C(=O)NCc1ccc(F)cc1)CC2`, the RP-LC retention time came to 820 s.
Under `Cc1cc(C(=O)N2CCCCC2)c2c(=O)n(Cc3nc(-c4cccs4)oc3C)c(=O)n(C)c2n1` stands 955 s; under `Cc1cc(Nc2ccc(Cl)cc2C)n2ncnc2n1`, 806 s; under `O=C(N[C@H]1C[C@@H]2C[C@H]1CN2S(=O)(=O)c1ccc2c(c1)OCCO2)c1ccccc1`, 803 s.
For the compound `CCn1cc(-c2nc(C(=O)Nc3cccc(C#N)c3)cs2)c2cccnc21`, the RP-LC retention time came out at 1030 s.
Under `Cc1cc(-c2csc(S(=O)(=O)NCCc3ccc(S(N)(=O)=O)cc3)c2)on1` stands 744 s.
Under `C=CCNC(=O)Cc1c(C)n(C)c2nc(-c3ccccc3)nn2c1=O` stands 663 s; under `Clc1cccc(-c2nnc(-c3nc(NCc4ccco4)c4ccccc4n3)o2)c1`, 1050 s; under `Cn1cc(CN2CCC(C(=O)NC3CCCC3)CC2)c2cc(Cl)ccc21`, 692 s.
Under `Cc1ccc(S(=O)(=O)N2C[C@H]3CN(C(=O)Nc4cccc(C)c4)C[C@@H](C2)O3)cc1` stands 852 s.
`CC(C)(C)C(=O)N1CCC(C(=O)Nc2nc3ccc(S(C)(=O)=O)cc3s2)CC1` registered an RP-LC retention time of 718 s.
Under `CN1C(=O)c2ccccc2Oc2ccc(C(=O)NCc3ccc4c(c3)OCO4)cc21` stands 826 s; under `Cc1ccc(Oc2cccc(C(=O)Nc3ccc(-c4csc(C)n4)cc3)c2)nn1`, 751 s.
Under `COc1cc(NC(=O)N2CCC3(CC2)NC(=O)c2ccccc2O3)cc(OC)c1OC` stands 685 s; under `O=C(Cc1c(F)cccc1Cl)NC1CCN(c2cc(-c3ccc(F)cc3)[nH]n2)C1` (stereo unspecified), 760 s.
In the case of `CC1CCN(c2cc(-c3noc(C(=O)NCCN(C)C)n3)ccn2)CC1`, the RP-LC retention time worked out at 566 s.
Under `Cc1ccc(C)c(NC(=O)Nc2c(-c3ccc(F)cc3)nc3ccccn23)c1` stands 697 s; under `COc1ccc(CNC(=O)Cn2cnc3nc(N4CCC(C(=O)NC5CC5)CC4)sc3c2=O)cc1`, 666 s; under `COc1ccc(N2CC(c3nnc(NC(=O)c4ccccc4Br)o3)CC2=O)cc1` (stereo unspecified), 703 s.
Under `Cc1noc(C)c1-c1ccc(S(=O)(=O)NCc2ccccc2)cc1` stands 916 s; under `Cn1cnnc1C1CCCCN1S(=O)(=O)c1cccs1` (stereo unspecified), 639 s; under `Cc1nn2c(CNC(=O)c3n[nH]c4c3CCCC4)c(-c3ccccc3)nc2s1`, 784 s.
In the case of `Cc1cccc(S(=O)(=O)N2CC3CN(C(=O)c4cnccn4)CC(C2)O3)c1`, the RP-LC retention time is 688 s.
Under `CC1CCN(S(=O)(=O)c2ccc3nn(Cc4ccccc4)c(=O)n3c2)CC1` stands 893 s.
As for `CCc1nccn1Cc1nc(-c2ccccc2F)no1`, the RP-LC retention time was 603 s.
Under `O=C(Nc1cccn2nc(C3CCC3)nc12)C1CCCO1` (stereo unspecified) stands 774 s.
Under `Cc1cccc(CNC(=O)CN2CCN(Cc3ccc(F)cc3Cl)C2=O)c1` stands 889 s; under `CCCn1c(C2CCN(C(=O)Nc3ccc(F)cc3)CC2)cc(=O)n2nccc12`, 648 s; under `CC1=NS(=O)(=O)N(C)C=C1C(=O)OCc1cc(F)ccc1F`, 935 s.
Under `CC(=O)N1c2ccccc2CC1c1nc(C(C)C)no1` (stereo unspecified) stands 841 s; under `COc1ccc2c(c1)C1(CCN(S(=O)(=O)c3ccc(NC(C)=O)cc3)C1)C(=O)N2` (stereo unspecified), 686 s.
For the compound `COC(=O)c1c(NCc2cccnc2)c2cccc(Cl)c2[nH]c1=O`, the RP-LC retention time was 566 s.
`O=C(NC1CCCCCC1)C1CC(=O)N(CCc2c[nH]c3ccc(Cl)cc23)C1` (stereo unspecified) registered an RP-LC retention time of 871 s.
Under `Cc1ccc(CNC(=O)C2(C)CCCCC(=O)N2)cc1` (stereo unspecified) stands 685 s.
Under `NS(=O)(=O)c1cccnc1Nc1cc(F)cc(F)c1` stands 858 s; under `CCc1nc(-c2cc(S(=O)(=O)NCC(=O)N3CCCCC3)c(C)s2)no1`, 891 s.
For the compound `CCCN1CCN(C(=O)CCC(=O)N2CCc3c(c(C(=O)N4CCCC4)nn3C)C2)CC1`, the RP-LC retention time was determined as 577 s.
Under `CCn1ccc2sc(C)c(C(=O)N3CCN(CC(C)C)CC3)c2c1=O` stands 574 s; under `CCC(=O)NCc1csc(C2CCCN(C(=O)COc3ccccc3)C2)n1` (stereo unspecified), 710 s; under `CCC(=O)N1CCCC(C(=O)NC2CC2)C1` (stereo unspecified), 567 s.
Under `CCCn1cc(S(=O)(=O)Nc2ccc(Cl)cc2F)c2cccnc21` stands 980 s.
Under `Cc1ccc(N2CC(c3noc(-c4ccc5ccccc5n4)n3)CC2=O)cc1` (stereo unspecified) stands 899 s.
In turn, `Cc1ccccc1N1CC(C(=O)N(C)C)CC1=O` (stereo unspecified) came in with an RP-LC retention time of 628 s.
Under `Cc1cc(C)c(S(=O)(=O)N2CCCC2c2nc(-c3ccc(F)cc3)no2)cc1C` (stereo unspecified) stands 1270 s.
Under `Cc1oc2c(c1C(=O)N1CCN(c3cccc(C(F)(F)F)c3)CC1)C1=NCCN1C=N2` stands 692 s; under `O=C(Nc1cccc(-c2cn3cccnc3n2)c1)c1ccccc1Cl`, 666 s.
Under `CCCNC(=O)N1CCC2(CC1)NCCc1c2[nH]c2ccccc12` stands 613 s; under `Cc1cccc(C(=O)Nc2ccc3c(c2)Sc2ncccc2C(=O)N3C(C)C)c1`, 898 s; under `Cc1ccc(Nc2c(-c3ccc(Br)cc3)nc3cnccn23)cc1`, 1100 s.
Consider `CN1C(=O)Cc2ccccc2C1C(=O)NCc1ccco1` (stereo unspecified), for which the RP-LC retention time is 668 s.
Under `Fc1ccc(-c2noc(Cn3ccnc3)n2)cc1Br` stands 650 s.
The compound `Cc1[nH]c(C(=O)N2CCCC(C(=O)NC(c3cccs3)C(C)C)C2)c(C)c1C(=O)OC(C)C` (stereo unspecified) showed an RP-LC retention time of 987 s.
Compound `Cc1ncsc1CN1CCC(Oc2ccccc2-c2nc(C3CC3)no2)C1` (stereo unspecified) gave an RP-LC retention time of 653 s.
Consider `COc1ccc(-c2nc(CN3CCCC3=O)no2)cc1`, for which the RP-LC retention time stood at 735 s.
Under `COCC(=O)Nc1cc(=O)n(C)c(=O)n1C` stands 552 s; under `CC(C)=C(c1ccc(Cl)cc1)c1c(N)ncnc1N`, 705 s; under `CCCC(C)NC(=O)c1cc2c(s1)N(C)CCCC2` (stereo unspecified), 974 s.
Take `COc1ccc(C(=O)N2CCc3cc(-c4csc(C)n4)ccc32)cc1OC`: the RP-LC retention time worked out at 862 s.
Under `CCN(CC)S(=O)(=O)c1ccc2c(c1)c(=O)c(C(=O)N1CCN(c3ccccn3)CC1)cn2C` stands 588 s; under `CN(C)C(=O)c1ccc2c(c1)N(CC(=O)NCCc1c[nH]c3ccccc13)C(=O)C1CCCCN21` (stereo unspecified), 781 s; under `Cc1ccc(NC(=O)Cn2cnc3c(sc4nc(-c5ccccc5)ccc43)c2=O)cc1Cl`, 1120 s.
Under `CC(=O)Nc1ccc(C2(C(=O)NCc3ccc4c(c3)OCO4)CCC2)cc1` stands 730 s; under `Cc1cc2c(=O)n(CC(=O)Nc3ccc(F)cc3)c3cccnc3n2n1`, 689 s.
